Results: patent publication US7208517B1, “Endothelin antagonists” (Abbott Labortories, priority 1994, dated 2007)
Where two headings read alike, the source gives them in different places.

Key:
ETA Receptor = target: T1, ETA Receptor (Rattus norvegicus, UniProt P26684); experiment: [125I]ET-1 binding to membranes from MMQ cells (ETA receptor binding assay, Table 4); conditions: for inhibition at 1 µM: read-out: % Inhibition of ETA at 1 μM
T1 construct: endogenous in cells; host or cells: MMQ rat pituitary cells (membranes)
T1 sequence (P26684 21-426): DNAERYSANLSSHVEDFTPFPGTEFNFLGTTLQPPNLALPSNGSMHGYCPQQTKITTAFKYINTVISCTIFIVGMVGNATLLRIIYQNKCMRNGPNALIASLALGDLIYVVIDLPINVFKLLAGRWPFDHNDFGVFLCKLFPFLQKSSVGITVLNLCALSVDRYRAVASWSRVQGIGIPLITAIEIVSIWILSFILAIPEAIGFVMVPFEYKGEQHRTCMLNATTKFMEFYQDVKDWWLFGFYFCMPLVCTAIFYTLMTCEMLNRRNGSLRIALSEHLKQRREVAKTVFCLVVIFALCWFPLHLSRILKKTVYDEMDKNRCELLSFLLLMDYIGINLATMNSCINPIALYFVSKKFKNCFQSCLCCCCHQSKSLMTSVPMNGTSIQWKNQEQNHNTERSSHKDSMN

[1] = target: T2, ETA receptor in MMQ cells (rET-A) (Rattus norvegicus, UniProt P26684); experiment: ETA/ETB selectivity: (125I)ET-1 competition binding, ETA assay in MMQ cell membranes (rET-A)
T2 construct: endogenous in cells; host or cells: MMQ rat pituitary cells (membranes)
T2 sequence (P26684 21-426): T1 sequence (P26684 21-426)
Description: (§1) The mixture was centrifuged at 1000×g for 10 min. The supernatant was collected and centrifuged at 60,000×g for 60 min. The precipitate was resuspended in 20 mM Tris, pH 7.4 containing protease inhibitor and centrifuged again. The final membrane pellet was resuspended in 20 mM Tris, pH 7.4 containing protease inhibitors and stored at −80° C. until used. Protein content was determined by the Bio-Rad dye-binding protein assay.
(§2) Binding assays were performed in 96-well microtiter plates pretreated with 0.1% BSA. […] After incubation, unbound ligands were separated from bound ligands by a vacuum filtration method using glass-fiber filter strips in PHD cell harvesters (Cambridge Technology, Inc., MA), washing the filter strips three times with saline (1 mL). Nonspecific binding was determined in the presence of 1 μM ET-1. IC50 values are calculated using an average of at least two separate determinations.

[2] = target: T3, ETB receptors of porcine cerebellar tissues (pET-B) (Sus scrofa, UniProt P35463); experiment: ETA/ETB selectivity: (125I)ET-3 competition binding, ETB assay in porcine cerebellum membranes (pET-B)
T3 construct: porcine cerebellar tissues (known to contain ETB receptors); from tissue; host or cells: porcine cerebellum (membranes)
T3 sequence (P35463 27-443): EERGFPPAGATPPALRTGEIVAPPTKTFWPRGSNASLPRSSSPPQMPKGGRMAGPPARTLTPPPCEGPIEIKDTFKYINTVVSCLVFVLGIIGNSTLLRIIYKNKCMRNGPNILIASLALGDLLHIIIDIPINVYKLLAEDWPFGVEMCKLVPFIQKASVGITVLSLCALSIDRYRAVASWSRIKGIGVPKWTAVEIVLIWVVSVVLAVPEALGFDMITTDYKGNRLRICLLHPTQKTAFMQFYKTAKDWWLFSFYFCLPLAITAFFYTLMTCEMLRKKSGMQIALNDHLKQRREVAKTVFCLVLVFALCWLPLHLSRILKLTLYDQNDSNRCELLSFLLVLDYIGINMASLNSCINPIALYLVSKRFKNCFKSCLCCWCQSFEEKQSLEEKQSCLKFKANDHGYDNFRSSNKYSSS
Description: as §1, §2

[3] = test compound at 1 μM, 0.1 nM [125I]ET-1, MMQ cell membranes, 4 hours at 25° C.
[4] = MMQ cell membranes, 0.1 nM (125I)ET-1, read-out: rET-A IC50
[5] = porcine cerebellum membranes, 0.1 nM (125I)ET-3, read-out: pET-B IC50

Compound | inhibition at 1 µM (ETA Receptor; [3]) | IC50 [1, 4] | % Inhibition of ETA at 1 μM (ETA Receptor; [3]) | further results
CCCCN(CCCC)C(=O)CN1CC(c2ccc3c(c2)OCO3)C(C(=O)O)C1CC(C)CCC (centres unmarked) [compound 502] |  |  |  | inhibition at 1 µM (ETA Receptor): 95.7%; IC50 [1]: 0.003 µM; IC50 [2]: 71 µM
CCCCN(CCCC)C(=O)CN1C[C@H](c2cc(OC)c3c(c2)OCO3)[C@@H](C(=O)O)[C@@H]1CC(C)(C)CCC [compound 536] | 100% | 0.00052 µM |  | IC50 [2]: 17 µM
CCCCCC1C(C(=O)O)C(c2ccc3c(c2)OCO3)CN1CC(=O)N(CCCC)CCCC (stereo not drawn) [Example 92C, trans,trans-2-(Pentyl)-4-(1,3-benzodioxol-5-yl)-1-(N,N-di(n-butyl)aminocarbonylmethyl)pyrrolidine-3-carboxylic acid] |  |  | 107.4% | 
CCCN(CCN1CC(c2ccc3c(c2)OCO3)C(C(=O)O)C1c1ccc(OC)cc1)S(=O)(=O)c1ccc(F)cc1 (stereo not drawn) [Example 134, trans,trans-1-(2-(N-Propyl-N-(4-fluorobenzenesulfonyl)amino)ethyl)-2-(4-methoxyphenyl)-4-(1,3-benzodioxol-5-yl)pyrrolidine-3-carboxylic acid] |  |  | 92.2% | 
CCC[C@H](C(=O)N(CCC)CCC)N1C[C@@H](c2ccc3c(c2)OCO3)[C@@H](C(=O)O)[C@@H]1c1ccc(OC)cc1 [Example 75C, (2R,3R,4R)-2-(4-Methoxyphenyl)-4-(1,3-benzodioxol-5-yl)-1-((1R)-1-(N,N-dipropylaminocarbonyl)-1-butyl)pyrrolidine-3-carboxylic acid] | 95.3% |  |  | 
CCCCN(CCCC)C(=O)CN1CC(c2cc(OC)c3c(c2)OCO3)C(C(=O)O)C1CC(C)(C)CCC (centres unmarked) [compound 514] | 100% | 0.001 µM |  | IC50 [2]: 26 µM
CCCCN(CCCC)C(=O)CN1CC(c2ccc3c(c2)OCO3)C(C(=O)O)C1c1ccccc1 (stereo not drawn) [Example 152, trans,trans-1-(N,N-Di(n-butyl)aminocarbonylmethyl)-2-phenyl-4-(1,3-benzodioxol-5-yl)pyrrolidine-3-carboxylic acid] |  |  | 86.9% | 
CCCN(C)C(=O)CN1CC(c2cccc(OC)c2)C(C(=O)O)C1c1ccc(OC)cc1 (stereo not drawn) [Example 55, trans,trans-2-(4-Methoxyphenyl)-4-(3-methoxyphenyl)-1-(N-methyl-N-propyl)aminocarbonylmethyl)-pyrrolidine-3-carboxylic acid] |  |  | 50.5% | 
CCCN(C)C(=O)CN1CC(c2ccc3ccccc3c2)C(C(=O)O)C1c1ccc(OC)cc1 (stereo not drawn) [Example 56, trans,trans-2-(4-Methoxyphenyl)-4-(2-naphthyl)-1-(N-methyl-N-propyl)aminocarbonylmethyl)-pyrrolidine-3-carboxylic acid] |  |  | 34.3% | 
CCCCN(CCCC)C(=O)CN1CC(c2ccc3c(c2)CCO3)C(C(=O)O)C1c1ccc(OC)cc1 (stereo not drawn) [Example 148, trans,trans-1-(N,N-Di(n-butyl)aminocarbonylmethyl)-2-(4-methoxyphenyl)-4-(5-benzo-2,3-dihydrofuranyl)pyrrolidine-3-carboxylic acid] |  |  | 94.7% | 
CCCCN(CCCC)C(=O)CN1CC(c2ccc(F)c(F)c2)C(C(=O)O)C1c1ccc(OC)cc1 (stereo not drawn) [Example 150, trans,trans-1-(N,N-Di(n-butyl)aminocarbonylmethyl)-2-(4-methoxyphenyl)-4-(3,4-difluorophenyl)pyrrolidine-3-carboxylic acid] |  |  | 93.6% | 
CCCCOCCN1CC(c2ccc(OC)cc2)C(C(=O)O)C1c1ccc2c(c1)OCO2 (stereo not drawn) [Example 27, trans,trans-2-(1,3-Benzodioxol-5-yl)-4-(4-methoxyphenyl)-1-(butoxyethyl)-pyrrolidine-3-carboxylic acid] |  |  | 61.2% | 

More lines, main results first:

inhibition at 1 µM (ETA Receptor; [3]) | IC50 [1, 4] | % Inhibition of ETA at 1 μM (ETA Receptor; [3]) | Compound | further results
98.1% | 0.0036 µM |  | CCCCN(CCCCN)C(=O)CN1CC(c2ccc3c(c2)OCO3)C(C(=O)O)C1c1ccc(OC)cc1 (centres unmarked) [compound 529] | IC50 [2, 5]: 6.3 µM
96.6% | 0.0079 µM |  | CCCCN(CCCN(C)C)C(=O)CN1CC(c2ccc3c(c2)OCO3)C(C(=O)O)C1c1ccc(OC)cc1 (centres unmarked) [compound 527] | IC50 [2, 5]: 10 µM
97.4% | 0.0002 µM |  | CCCCN(CCCC)C(=O)CN1C[C@H](c2ccc3c(c2)OCO3)[C@@H](C(=O)O)[C@@H]1CCN1CCCC1=O [compound 520] | IC50 [2, 5]: 28 µM
98.3% | 0.011 µM |  | CCCCN(CCC[N+](C)(C)C)C(=O)CN1CC(c2ccc3c(c2)OCO3)C(C(=O)O)C1c1ccc(OC)cc1 (centres unmarked) [compound 528] | IC50 [2, 5]: 43 µM
100% | 0.00067 µM |  | CCCC(CCC)N(C(=O)CN1C[C@H](c2ccc3c(c2)OCO3)[C@@H](C(=O)O)[C@@H]1CCN1CCCC1=O)c1ccc(F)c(C)c1 [compound 521] | IC50 [2, 5]: 37 µM
 |  | 80.7% | CCCCN(CCCC)C(=O)CN1CC(c2ccc3c(c2)OCO3)C(C(=O)O)C1CCOC (stereo not drawn) [Example 309, trans—trans-2-(2-Methoxyethyl)-4-(1,3-benzodioxol-5-yl)-1-[N,N-di(n-butyl)aminocarbonylmethyl]-pyrrolidine-3-carboxylic acid] | 
 |  | 93.3% | CCCCCCS(=O)(=O)N(CCC)CCN1CC(c2ccc3c(c2)OCO3)C(C(=O)O)C1c1ccc(OC)cc1 (stereo not drawn) [Example 306, trans,trans-2-(4-Methoxyphenyl)-4-(1,3-benzodioxol-5-yl)-1-(2-(N-propyl-N-hexanesulfonylamino)ethyl)-pyrrolidine-3-carboxylic acid] | 
